Results reported in US12527849B2, “Apparatus for determining administration form of a composition of an engineered virus-based nanoparticle for a treatment of an autoimmune condition” (Diamante Srl, priority 2021, dated 2026).

Tests used:
Assay type in all cases: in vivo
Settings in all cases: Dexamethasone oral 1 mg/kg, 20 times between day 28 and 57
MCP-1 = test: Pro-inflammatory cytokines in sera of CIA Collagen mice (ELISA, day 58): MCP-1
Method: (§1) Critical administration 124 disclosed herein is further described below. Q5D represents administration 5 days a part. TBSV·pLIp1 and wt TBSV shown in Table 1 may include liquid form that are not sterile and stored in −20° C. TBSV·pLIp1 may be given at the dose of 50 μG/100 μL Male DBA/1J mice (8 weeks; Envigo, Italy) may be used for these studies. Mice may be housed in individual cages (two for each group) and maintained under a 12:12 light-dark cycle at 21° C.±1° C. and 50%±5% humidity. The animals may be acclimated to their environment for 1 week and had ad libitum access to tap water and standard rodent diet. All animal experiments may be complied with regulations in Italy (D.M. 116192), Europe (O.J of E.C. L 358/112/18/1986), and the United States (Animal Welfare Assurance Number A5594-01, Department of Health and Human Services, USA). […] Arthritis was assessed by using qualitative severity score system and hind paw volume (mL) measured by a plethysmometer on day 20, 22, 24, 26, 28, 30, 32, 34, 36, 38, 40, 42, 44, 46 48, 50, 52, 54, 56 and 58. Body weight was recorded on day 0, 6, 13, 16, 18, 20, 22, 24, 26, 28, 30, 32, 34, 36, 38, 40, 42, 44, 46, 50, 52, 54, 56 and 58. […]

IL-6 = test: Pro-inflammatory cytokines in sera of CIA Collagen mice (ELISA, day 58): IL-6
Method: as §1

IL-17A = test: Pro-inflammatory cytokines in sera of CIA Collagen mice (ELISA, day 58): IL-17A
Method: as §1

IFN-γ = test: Pro-inflammatory cytokines in sera of CIA Collagen mice (ELISA, day 58): IFN-γ
Method: as §1

## C[C@@H]1C[C@H]2[C@@H]3CCC4=CC(=O)C=C[C@]4(C)[C@@]3(F)[C@@H](O)C[C@]2(C)[C@@]1(O)C(=O)CO [Dexamethasone, dexamethasone]
MCP-1
  MCP-1, % of reduction vs CIA Collagen: 30.57%
IL-6
  IL-6, % of reduction vs CIA Collagen: 40.13%
IL-17A
  IL-17A, % of reduction vs CIA Collagen: 25.07%
IFN-γ
  IFN-γ, % of reduction vs CIA Collagen: 37.39%
